Laboratory results reported in ChEMBL document CHEMBL3507680, “University of Dundee, Gates Library screen for HepG2 cell viability”.

Assay: Human HepG2 cell viability assay in 384 well format
Type: toxicity, cell-based
Set-up: dose 125 nL, time 70.5 hour; concentration not given beside the values
Conditions: HepG2 cells, read-out: Inhibition

Compound	cytotoxicity at 70.5 h
c1ccc(-c2cnc(CN3CCCC3Cn3cccn3)o2)cc1 (centres undefined)	1.69%
CC(C)(C)c1nccc(N2CCN(C3CCS(=O)(=O)C3)CC2)n1 (centres undefined)	-0.27%
COc1cccc(CN2CCCCCC2c2cccs2)c1O (centres undefined)	-6.94%
CN(C)c1ncc(-c2ccc(C(N)=O)cc2)c(C2CCNC2)n1 (centres undefined)	-2.25%
CC(C)(O)CCc1cccc(C(=O)NCc2cnn3cccnc23)c1	-4.68%
c1nc(N2CCOCC2)ncc1-c1cncn1CCCN1CCCCC1	-13.7%
CCc1cccc(C)c1NC(=O)NCCCN(CC)S(C)(=O)=O	-3.01%
CC(C)NC(=O)N1CCC2(CC(=O)N(c3cccc(F)c3)C2)C1 (centres undefined)	-12.8%
CCn1c(C)nnc1CN(C)C1CCN(Cc2nnc(C3CC3)o2)C1 (centres undefined)	2.54%
C1CCN(c2nc(N3CCOCC3)nc3[nH]nnc23)CC1	-5.52%
CCCc1cc(C(=O)NC(C)c2ccccc2)n(C)n1 (centres undefined)	-2.33%
CCc1nnc(Nc2cccc(C3CCN(C(=O)CO)CC3)n2)s1	-4.24%
CC(C(=O)N1CCCC1)S(=O)(=O)Cc1noc(C(C)(C)C)n1 (centres undefined)	-2.28%
Cc1cnc(C)c(-c2cccc(-c3ccn(CCN4CCCC4)n3)c2)n1	11.2%
CNC(=O)c1cc2c(nc1N(C)C)CCN(C)CC2	-2.14%
CN1C(=O)CC(c2ccccc2)C12CCN(CC1CC1)CC2 (centres undefined)	-11.2%
Cc1cc(CN2CCN(Cc3cnc4c(c3)c(C)nn4C)CC2)on1	-6.72%
O=C1CC(C(=O)O)C2(CCN(C(=O)NCc3ccc(Cl)cc3)CC2)N1 (centres undefined)	-2.42%
CC(C1CC1)N(C(=O)CNc1ccc(C#N)cc1)C1CC1 (centres undefined)	-6.5%
c1cc(CNCC2Cn3nncc3CO2)ccn1 (centres undefined)	-5.93%
O=C(CCn1cc(Cl)cn1)N1CCN(CCOc2ccccc2)CC1	-4.12%
CCc1nnc(CN(C)C2CCCN(Cc3noc(C4CC4)n3)C2)o1 (centres undefined)	12.1%
CN(C)C(=O)c1cncnc1-c1ccc(CNC(=O)C2CC2)cc1	-11.4%

Compound	cytotoxicity at 70.5 h
CN1Cc2ccccc2N(CC(O)C(F)(F)F)CCC1=O (centres undefined)	-6.68%
COc1ccc(C)cc1C(C)NCc1cnnn1C (centres undefined)	-1.22%
CS(=O)(=O)N1CCCC12CCN(Cc1ccoc1)CC2	-3.22%
CCN(C(C)=O)C1CCN(c2nccc(C3CCCC3)n2)C1 (centres undefined)	-30.2%
CNc1ccc(C2CN(c3cc(C)nc(N)n3)CCO2)nc1 (centres undefined)	-2.26%
CN1CCN(c2ncccn2)CC12CCC(=O)N(CC1CC1)CC2 (centres undefined)	9.35%
O=C(NS(=O)(=O)Cc1cc(-c2ccccc2)no1)C1CCOCC1	-1.22%
CN(C)S(=O)(=O)N1CCCC(c2cccc(Cc3ccc(Cl)cc3)n2)C1 (centres undefined)	17.5%
Cn1nc(C(=O)NCc2cccs2)c2c1CCS(=O)(=O)C2	-6.12%
Cc1cc(C2CCCN(C(=O)COc3cc(C)on3)C2)n[nH]1 (centres undefined)	-3.29%
CCO[C@H]1CN(C(=O)c2ccc3c(c2)OCO3)[C@@H]2COC[C@H]12	-2.21%
COc1c(CNC(c2ccccc2)c2nccn2C)c(C)nn1C (centres undefined)	-0.0475%
O=C(O)CC1CN(S(=O)(=O)c2cccc(F)c2)c2ccccc21 (centres undefined)	22.7%
CCCN(CC1CC1)C(=O)Cn1ccccc1=O	-3.4%
Cc1oncc1C(=O)NCc1ccnc(OCC(F)(F)F)c1	11%
COCC(=O)N1CCCCC1c1nc(C)c2c(n1)N(C1CC1)C(=O)CC2 (centres undefined)	-3.68%
Cn1c(Cn2cccn2)nnc1C1CCN(Cc2cccnc2N)CC1	-0.251%
CCC(CC)(CNC(=O)OC(C)(C)C)NC(=O)C1CCOCC1	-5.37%
CC(C)(C)SCCCC(=O)N1CCC(Nc2cccnn2)CC1	-6.39%
CS(=O)(=O)N[C@H]1CN(C(=O)CCc2ccco2)C[C@@H]1C1CC1	19.3%
CCn1cc(S(=O)(=O)NCC2(N3CCOCC3)CCCCC2)c(C)n1	28.1%
CCN(Cc1ccoc1)C(=O)C1CN(C(=O)OC(C)(C)C)C1	-13.5%
O=C1CNc2ncnc(N3CCN(Cc4ccccc4F)CC3)c2N1	-7.69%

Compound	cytotoxicity at 70.5 h
CCc1c(C(=O)O)nnn1-c1ccc(C)cc1C	-17.4%
Cn1cc(C(=O)N2CCO[C@@H]3CN(C4CCC4)C[C@@H]3C2)cn1	-3.32%
CN1CCC/C1=N\S(=O)(=O)c1ccc(NC(=O)c2ccc(Cl)cc2)cc1	1.42%
COc1ncccc1CN1CC[C@H]2[C@H]1CCN2CCN(C)C	-1.63%
CN(C)CC(=O)N1CCC2(CC1)COc1ccccc1S(=O)(=O)N(C)C2	0.316%
COc1cc(N2CC[C@@H](OC)[C@@H]2Cc2ccccc2)ncn1	-1.02%
Cc1nc(C)n(CC2CN(Cc3cscn3)CCO2)n1 (centres undefined)	-6.91%
CCC(C(=O)NC1CCN(S(C)(=O)=O)CC1)n1cccn1 (centres undefined)	-7.66%
Fc1ccc(CN2CCC3(CC2)CN(c2ccccn2)CCO3)cc1	2.69%
CC(=O)N1CCN(C(=O)CCCc2nc(C(C)C)no2)CC1	11.7%
COc1cccc(S(=O)(=O)CCNC(C)Cn2cccn2)c1 (centres undefined)	4.6%
Cc1cc(C[C@@H]2COC[C@H]2NCc2ccc(C)c(C)c2)on1	-7.12%
COc1cc(CN(C)C(=O)NC2CC2)ccc1SC	-3.48%
COc1ncccc1C(=O)N1CCC(CNC(C)=O)CC1	-11.5%
CN(C)CCO[C@@H]1CC[C@H]2[C@H]1OCCN2C(=O)c1ccncc1	-3.32%
Cc1nc(CN(C)CC2CCCN(CCc3ccc(Cl)cc3)C2)no1 (centres undefined)	0.0181%
CCOc1ccc(CC(CNC(=O)c2occc2C)C(N)=O)cc1 (centres undefined)	6.46%
COc1cccc(CCCn2cnnc2[S+](C)[O-])c1 (centres undefined)	-7.37%
Cc1ccoc1C(=O)NCCOc1ccc(C(F)(F)F)cn1	18.3%
O=C(c1ccnc(NC2CC2)c1)N1CCCC1c1cccc(Br)c1 (centres undefined)	-6.56%
CNS(=O)(=O)Cc1ccc(CNC(=O)Nc2cn[nH]c2)cc1	-11.3%
COc1ccc(NC(=O)Cn2nc(C)ccc2=O)cc1OC	0.232%
CCc1nnc(C(C)N2CCC(NC(=O)C3CCCCC3)CC2)o1 (centres undefined)	-7.39%

Compound	cytotoxicity at 70.5 h
COc1cc(C)ccc1OCC(=O)Nc1ccnc(OCCN(C)C)c1	39.3%
NCc1cnn(-c2ccccc2C(=O)NCCCn2ccnc2)c1	-6.34%
CC(C)OCCOCc1cccc(NC(=O)NCc2ccncc2)c1	2.35%
CCOC(C)c1nccn1Cc1cc(C)on1 (centres undefined)	-1.6%
CS(=O)(=O)c1cccc(Cl)c1C(=O)NCCN1C(=O)CCC1=O	16.3%
Cc1cc(CN(C)C(=O)NC2CCN(S(C)(=O)=O)CC2)no1	-9.54%
COc1ccc(CN2C[C@@H]3OCCN(CCN(C)C)[C@@H]3C2)cc1	-3.2%
O=C(Cc1ccc(CO)cc1)N1CCN(c2ccccc2Cl)C(=O)C1	-9.48%
COCCC(=O)Nc1nccn1Cc1ccc(Br)cc1	-0.141%
COc1cccc2c1OCC(Cc1cnc(N)c(C)c1)C2 (centres undefined)	-8.04%
Cc1ccc(NC2CCN(C(=O)c3cc[nH]n3)CC2)nn1	-11%
Cn1ccc(C(=O)NC2CCC23CCN(Cc2nccs2)CC3)c1 (centres undefined)	-4.21%
Cc1cnn(CCNCc2nccn2Cc2ccccc2)c1	1.16%
N#Cc1cc(S(N)(=O)=O)ccc1N1CCN(c2ccccc2)CC1	1.86%
Cc1nn(C)c(C)c1CNC(=O)CCn1ncc2c(Cl)cccc21	-1.2%
Cc1cc(NCCNc2cccnc2)nc(-c2ccccc2O)n1	3.73%
Cc1nc(CN2CCC(C(=O)O)(n3ccc(C(C)C)n3)CC2)co1	-0.222%
CC(=O)N1CCN(CCOc2ccc(F)cc2)CC(C(N)=O)C1 (centres undefined)	-9.44%
CS(=O)(=O)c1nccn1CCOc1ccccc1F	13.8%
c1csc(CN2CCOCC3(CCN(C4CCOCC4)C3)C2)n1 (centres undefined)	0.591%
CC(C)C(NC(=O)NCCNc1cnccn1)c1cccs1 (centres undefined)	-11.6%
COc1ccccc1N1CCC(CNCc2cccc(OC)c2OC)C1 (centres undefined)	13.4%
CCOC(=O)[C@@H]1[C@H]2CN(C(=O)OC)CCN2C[C@H]1c1ccccc1	-5.21%

Compound	cytotoxicity at 70.5 h
OCCOCCN1CCCC1c1nc2cc(F)ccc2[nH]1 (centres undefined)	12%
CC(C)Cc1noc(CN2CCOCC2C)n1 (centres undefined)	-1.45%
CC(=O)N1CCO[C@@H]2CN(C(=O)c3ccc4ncccc4c3)CC[C@@H]2C1	-3.03%
O=C1Nc2ccccc2CNC12CCN(CC1CC1)CC2	-9.09%
Cc1cccc(CN2CCOC(C)(C(=O)N3CCOCC3)C2)n1 (centres undefined)	11%
OCCN1CCN(Cc2cnc3c(-c4ccccc4)cnn3c2)CC1	6.6%
CCNC(=O)NC(C)(C)C(=O)NCc1cccc(N2CC=CC2)c1	2.33%
CN1CCC(N(CCc2ccccc2)Cc2noc(C3CC3)n2)CC1	-12.8%
NC(=O)CN(Cc1cccc(Oc2ccccc2)c1)C(=O)C1CC1	-4.97%
Cc1csc([C@H]2C[C@H]3CN(Cc4cc(C)on4)CC[C@@H]3O2)n1	-7.64%
O=C(CCc1ccc(Cl)s1)N1CCCC(n2cncn2)C1 (centres undefined)	11.3%
COc1ccc2cccc(CC(=O)NCc3n[nH]c(=O)[nH]3)c2c1	-1.52%
CN(Cc1ccc2c(c1)OCO2)C(=O)c1ccn(C)c(=O)c1	-10.8%
Cc1ccc(C#N)c(N2CCC3(CCCN(C4CCOCC4)C3=O)C2)n1 (centres undefined)	-1.26%
CN1CCC(N(C)CCC(=O)N2CCN(Cc3cccc(F)c3)CC2)C1 (centres undefined)	-0.236%
CNc1cc(CNC(=O)c2cccnc2)nc(-c2ccncc2)n1	-1.87%
Cc1cc(C2CCCN2Cc2nc3c(cnn3C)c(=O)[nH]2)on1 (centres undefined)	-8.83%
CCS(=O)(=O)c1ccccc1C(=O)N1CCCC(n2cccn2)C1 (centres undefined)	18.2%
O=C(C[S+]([O-])Cc1ccc(F)cc1)N1CCc2sccc2C1 (centres undefined)	-9.59%
Cc1cc(NCc2csc(-c3ccsc3)n2)no1	0.878%
COCCCNS(=O)(=O)c1cc(Br)sc1C	-6.02%
N#CCSCC(=O)NCC1CCCCC1	-7.13%
